Legend:
[1] = target: T1, CCR5 receptors expressed in HEK-293 cells (Homo sapiens, UniProt P51681); assay: Intracellular calcium release, CCL5-stimulated CCR5 in HEK-293 cells; type: cell-based; conditions: CCR5 expressing HEK cells stimulated by CCL5
T1 construct: expressed in transfected cells; host or cells: HEK-293 cells, transient transfection with Lipofectamine 2000
Description: Briefly, HEK-293 cells were cultured at 37° C. in Dulbelcco's modified Eagle's medium supplemented with 10% fetal bovine serum and 1% Penicillin/Streptomycin. Then 100 mm^2 were transiently transfected with CCR5 receptor cDNA using OptiMEM-1 medium (Invitrogen) and Lipofectamine 2000 (Invitrogen, Carlsbad, Calif.) reagent according to manufacturer's protocol (1:2 wt/vol ratio for DNA:Lipofectamine; 16 μg DNA: 32 μl Lipofectamine). The cells were seeded into 96 well plates (half-area; Corning) at 20,000 cells/well after 24 hours and assayed 48 hours after transfection using the FLIPR calcium kit (Molecular Devices) in a Flexstation-III apparatus (Molecular Devices). Cells were incubated with the calcium dye for 45 minutes at 37° C. before the antagonists were added to each well at the concentration listed, and incubated at 37° C. for 15 minutes. The control agonist, CCL5 (RANTES), was added at a concentration that elicited an 80% maximal response in untreated cells (100 nM) to each well and the calcium response measured with and without antagonists for 90 seconds. The change in RFU was calculated by subtracting the minimum relative fluorescent unit (RFU) from the maximum RFU response, replicated 6 times and averaged. Each experiment was repeated at least 3 times and the mean±SEM was plotted for each treatment group. Plates were 80-90% confluent, cells

[2] = system: CFA-induced mechanical hyperalgesia mouse model; assay: Complete Freund's Adjuvant (CFA) mechanical hyperalgesia, electronic von Frey; type: in vivo, mice; conditions: i.t.
Description: Before injection of CFA baseline withdrawal thresholds (g) were obtained from a mechanical stimulation using an electronic von Frey anesthesiometer (IITC Life Sciences, Woodland Hills, USA) by applying an accurate force on both left and right hind paw. (2,3) The left hindpaws were then injected (intraplantar) with a 50% solution of CFA (10 μg, Sigma-Aldrich) in water while the mice are under isoflurane anesthesia (10). Twenty-four hours later the withdrawal threshold (g) was again measured prior to and after the test compound i.t. at 10, 20, 30 and 60 minutes to determine the peak time and subsequent ED50. % MPE was calculated ((Time-point withdrawal threshold with drug−CFA withdrawal threshold)/(Day 0 withdrawal threshold−CFA withdrawal threshold))*100 (Wade, C. L., et al., PLoS One 2013, 8, e79239/1-e79239/11, 11 pp; Martinov, T., et al., J Vis Exp 2013, e51212; Sorge, R. E., et al., J. Neurosci. 2011, 31, 15450-15454).

LPS-pretreated mice = assay: animal or person
Description: Male ICR-CD1 mice (17-25 g; Harlan, Madison, Wis.), C3H mice (15-20 g, National Cancer Institute, Bethesda, Md.) or TLR4 knock-out mice (gift from Dr. Sabita Roy) were housed, 4 to a small box in a temperature- and humidity-controlled environment with unlimited access to food and water. They were maintained on a 12 h light/dark cycle. All experiments were approved by the Institutional Animal Care and Use Committee of the University of Minnesota (Minneapolis, Minn.).
The tail flick assay is used to test for antinociception described by D'Amour and Smith^64 and modified by Dewey et. al.^65 Mice are held gently in one hand with the tail positioned in the apparatus (Tail Flick Analgesia Meter, Columbus Instruments, Columbus, Ohio) for radiant heat stimulus. The tail-flick response is elicited by applying radiant heat to the dorsal side of the tail. The test latency is measured before drug treatment (control) and again after the drug treatment (test) at the peak time of the compound, a 10 s maximum cut-off time is used to prevent damage to the tail. Antinociception is quantified according to the method of Harris and Pierson^66 as the percent maximal possible effect (% MPE) which is calculated as: % MPE=(Test−Control/10−Control)×100
A minimum of three groups of eight to ten mice are used for each dose response curve, and each mouse is used only once.
The compounds were tested for acute tolerance by comparing the ED80-90 dose measured on day 1 to the same dose administered and retested 24 hours later on the same mouse.
Compounds were dissolved in 5% DMSO and diluted to less than 1% DMSO for injection. These compounds were administered in a volume of 5-μl either i.c.v (Haley and McCormick) or intrathecal (i.t.) as described for mice by Hylden and Wilcox^67 in conscious mice. […] Time course studies, including the times 5, 10, 20, 30 and 60 minutes were used to determine the peak antinociception.
Pain is a hallmark of many inflammatory conditions. […] Antinociception was evaluated using the radiant heat-induced tailflick assay. Morphine was employed as a standard opioid agonist under these conditions.

control mice = assay: Radiant heat tail-flick antinociception, control (LPS-untreated) mice; type: in vivo; conditions: control mice
Description: Pain is a hallmark of many inflammatory conditions.

[3] = system: mice with cisplatin-induced hyperalgesia; assay: Cisplatin-induced peripheral neuropathy, mechanical hyperalgesia (von Frey); type: in vivo, C3H/HeJ mice; conditions: cisplatin model
Description: Adult male C3H/HeJ mice were tested for mechanical paw withdrawal responses on 2 consecutive days prior to treatment by determining the frequency of hind paw withdrawal evoked by a standard von Frey monofilament with a bending force of 3.9 mN applied to the plantar surface of the hind paws. Mice were then given 1 mg/kg of cisplatin intraperitoneal (i.p.) daily for 7 consecutive days and on day 14 post-injection, mechanical hyperalgesia was assessed. Compounds were administered intrathecally (i.t.) and i.p. weekly to determine peak time effects and ED50/80.

T1 sequence (P51681 whole entry): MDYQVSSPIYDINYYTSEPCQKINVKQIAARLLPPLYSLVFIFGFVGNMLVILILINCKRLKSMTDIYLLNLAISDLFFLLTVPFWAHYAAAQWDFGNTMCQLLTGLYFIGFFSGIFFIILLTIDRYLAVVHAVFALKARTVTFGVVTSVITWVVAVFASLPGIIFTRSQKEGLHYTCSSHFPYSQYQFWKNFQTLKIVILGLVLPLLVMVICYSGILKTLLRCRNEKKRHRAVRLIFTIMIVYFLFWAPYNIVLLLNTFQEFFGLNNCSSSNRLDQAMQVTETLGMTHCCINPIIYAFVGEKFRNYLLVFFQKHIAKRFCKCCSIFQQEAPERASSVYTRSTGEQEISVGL

Row | SMILES | inhibiting calcium release (compared with TAK-220) [1] | ED50 values (95% CI) CFA (mechanical) [2] | LPS pretreated i.c.v./i.t. ratio (LPS-pretreated mice; LPS 1 mg/kg 24 hours i.p.) | LPS pretreated ED50 (CI) i.c.v. (LPS-pretreated mice; LPS 1 mg/kg 24 hours i.p., i.c.v., tail flick) | LPS pretreated ED50 (CI) i.t. (LPS-pretreated mice; LPS 1 mg/kg 24 hours i.p., i.t., tail flick) | ED50 values (95% CI) LPS (thermal) (LPS-pretreated mice; i.t., LPS thermal hyperalgesia model) | tolerance upon repeated administration (LPS-pretreated mice; i.t., LPS-pretreated mice) | CONTROLS i.c.v./i.t. ratio (control mice) | CONTROLS ED50 (CI) i.c.v. (control mice; i.c.v., tail flick) | CONTROLS ED50 (CI) i.t. (control mice; i.t., tail flick) | ED50 (95% CI) i.p. ([3]; i.p.) | tolerance ([3]; i.p.) | tolerance ([3]; i.p., listed as morphine) | ED50 (95% CI) i.t. ([3]; i.t.) | tolerance ([3]; i.t.)
1 | CNC(=O)COCC(=O)N1CCC(CC(=O)N(CCCN2CCC(Cc3ccc(C(N)=O)cc3)CC2)c2ccc(C)c(Cl)c2)CC1 [Compound 8c, N-(3-(4-(4-carbamoylbenzyl)piperidin-1-yl)propyl)-N-(3-chloro-4-methylphenyl)-1-(2-(2-(methylamino)-2-oxoethoxy)acetyl)piperidine-4-carboxyamide] | equally potent |  |  |  |  |  |  |  |  |  |  |  |  |  | 
2 | CN1CC[C@]23c4c5ccc(O)c4O[C@H]2[C@@H](O)C=C[C@H]3[C@H]1C5 [Morphine, morphine, reference compound] |  | 15 pmol/mouse | 8.60 | 301 pmol/mouse | 35.0 pmol/mouse | 35 pmol/mouse | exhibited tolerance | 11.1 | 301 pmol/mouse | 27.0 pmol/mouse | 14.28 pmol/mouse | significant tolerance | exhibits 24 h tolerance | 27.44 pmol/mouse | significant tolerance

Reference: patent US10464941B2, “Therapeutic compounds” (REGENTS OF THE UNIVERSITY OF MINNESOTA, priority 2015, dated 2019)
